From patent US10450570B2, “Compositions and methods for controlling vasculature” (YALE UNIVERSITY, priority 2016, dated 2019)
Blank lines part the entries; values can stand above or below the molecule they belong to.

How the values were obtained:
HDLECs [1] = experiment: Glucose uptake measurement (2-[1-14C]-deoxy-D-glucose); type: cell-based, human
Protocol: (§1) Glycolysis was measured as previously described. Briefly, subconfluent HDLECs cultured in 12-well plates were incubated with 1 ml/well EBM2 medium (containing appropriate amount of serum and supplement) with 80 μCi/mmol 5-^3H-glucose (Perkin Elmer) for 2-3 hr. Then 0.8 ml/well medium was transferred into glass vials with hanging wells and filter papers soaked with H2O. After incubation in a cell culture incubator for at least 2 days to reach saturation, filter papers were taken out and the amount of evaporated ^3H2O was measured in a scintillation counter. Glucose oxidation, glutamine oxidation and fatty acid oxidation were measured essentially as reported. For measurement of glucose uptake, HDLECs were incubated with 2-[1-^14C]-deoxy-D-glucose (2.5 μCi/ml, Perkin Elmer) for 10 min. before PBS washing (at least 3 times to get rid of all radioactive medium) and then lysis with 500 μL 0.1 N NaOH. 400 μl NaOH cell lysate for each sample was transferred to scintillation vials containing scintillation liquid and measured.

Myc expression in HDLECs = experiment: Western blot of Myc expression in HDLECs; type: cell-based, human
Protocol: (§2) Human dermal lymphatic endothelial cells (HDLECs, HMVEC-dLyNeo-Der Lym Endo EGM-2MV) and Pooled human umbilical vein endothelial cells (HUVECs) were purchased from Lonza and cultured in EBM2 basal medium with EGM-2 MV BulletKit. Both cell types were tested negative for mycoplasma in Lonza. Culture medium was changed every the other day. Tissue culture plates were coated with 0.1% gelatin (Sigma) for 30 min at 37° C. and washed with Dulbecco's Phosphate-Buffered Saline (Life Technologies) before cell plating. For siRNA-mediated gene knockdown, FGFR1 siRNA (ON-TARGETplus human FGFR1 siRNA, Dharmacon; Hs_FGFR1_6, Qiagen), FGFR3 siRNA (Hs_FGFR3_6, Qiagen), HK2 siRNA (s6562 human HK2 siRNA, Life Technologies), c-Myc siRNA (ON-TARGETplus human Myc siRNA, Dharmacon), AllStar negative control siRNA (Qiagen), and ON-TARGETplus Non-targeting pool (Dharmacon) were transfected by lipofectamine RNAimax reagent (Life Technologies). Human FGF2 was provided by Kaken Pharmaceutical Co, Ltd (Japan) and ordered from Peprotech. Human VEGFC, VEGFD, IGF1, IGF2 and PDGFBB were purchased from Peprotech. To assay the effect of FGFR1 knockdown on glycolytic enzyme expression, HDLECs, transfected with control or FGFR1 siRNA 3 days in advance, were replated and collected for protein analysis 24 hr later when the cell confluency reached ˜80%. […] ImageJ was used for densitometry quantification of western blot bands.

HDLECs [2] = experiment: Mass spectrometry of glycolytic metabolites and ATP; type: cell-based, human
Protocol: HDLECs were quenched by a rapid wash with ice-cold PBS and then collected in 150 μl of an ice-cold solution containing 20% methanol, 0.1% formic acid, 1 mM phenylalanine, 3 mM NaF and 100 μM EDTA. ^2H4-Taurine (10 μM, CDN Isotopes) was used as a loading control. All the samples were lyophilized and resuspended in 50 μL of water prior the LC-MS/MS analysis. Samples were injected onto a Cogent Diamond Hydride™ column (2.2 μm particle size, 2.1 mm×10 cm) at a flow rate of 0.5 mL/min. Glycolytic intermediates were eluted isocratically with a 95% aqueous/5% organic solvent mixture. The aqueous solution contained 15 mM ammonium formate. The organic solution contained 60% acetonitrile, 35% isopropyl alcohol and 15 mM ammonium formate. Samples were ionized by electrospray into an ABSCIEX 5500 QTRAP equipped with a SelexION for differential mobility separation (DMS) and acquired using multiple reaction monitoring (MRM) in negative mode, as described previously. DMS-based separation of fructose-6-phosphate from glucose-6-phosphate, as well as the separation of ATP, ADP and AMP nucleotides, was achieved using no modifier. Isopropyl alcohol was used as modifier for the DMS-based separation of the remaining glycolytic intermediates. […]

HDLECs [3] = experiment: Glycolytic flux measurement (5-3H-glucose); type: cell-based, human
Protocol: as §1

[4] = tested on: HK2 and other glycolytic enzymes in HDLECs; experiment: Western blot of glycolytic enzyme expression in HDLECs; type: cell-based, human; conditions: protein
Protocol: as §2

HUVECs = experiment: Glycolytic flux measurement in HUVECs; type: cell-based, human
[5] = tested on: HK2 and other glycolytic enzymes in HUVECs; experiment: Western blot of glycolytic enzyme expression in HUVECs; type: cell-based, human
Protocol: as §2

[6] = tested on: Myc binding to the HK2 E-boxes in HDLECs; experiment: ChIP-qPCR of Myc binding to the HK2 gene; type: cell-based, human
Protocol: ChIP assays were performed using SimpleChIP® Plus Enzymatic Chromatin IP Kit (Cell Signaling) according to manufacturer's protocol with some minor modifications. Basically cells cultured on 20-cm dishes were fixed for 10 min by adding 37% formaldehyde solution to the culture medium to a final concentration of 1%. Fixation was quenched with glycine for 5 min at room temperature. Cells were washed twice with ice-cold PBS, scraped into 2 ml PBS, and centrifuged at 5,000 rpm for 10 min. The cell pellets from two 20-cm dishes were combined and lysed in 1 ml lysis buffer. The lysate was then centrifuged at 5,000 rpm for 5 min at 4° C. and the pellet was resuspended in 100 μl nuclease digestion buffer. The DNA was digested with 0.5 μl of Micrococcal Nuclease for 20 min at 37° C. to a length of approximately 150-900 bp (checked by agarose gel electrophoresis). Lysates were centrifuged and the pellet was resuspended in 500 μl ChIP buffer and sonicated for 3×30 s at power level 2 and 40% constancy. […] The amount of precipitated DNA from each sample was quantified by qPCR using primers flanking the Myc binding element in the HK2 gene. The reading was normalized to that of DNA purified from the previously saved cross-linked chromatin (2% input). The reading by DNA from IP using Myc antibody against that from IgG IP indicated the antibody efficiency for ChIP assay. […]

mouse cornea = experiment: Corneal lymphangiogenesis model; type: in vivo; conditions: FGF2-containing pellets implanted, 1 week
Protocol: Slow-releasing pellets containing FGF2 were made as previously described (Tang, Z. et al. JoVE, (2011)). Surgery to implant the pellets into the mouse cornea was performed as reported (Cao, R. et al. Nature protocols 6, 817-826, (2011)). Adult Prox1-CreER^T2(KI); HK2^flox/flox and control mice were i.p. injected with tamoxifen (150 μg/g body weight) every the other day (seven injections total) before the cornea surgery. 1 week after the pellet implantation, eyeballs were harvested for cornea dissection and immunostaining with LYVE1 (Angiobio, #11-034) and PECAM1 (BD Pharmigen, #553370) antibodies and then used for imaging (spinning disk confocal microscopy) and quantification analysis (ImageJ).

Myc expression in HUVECs = experiment: Western blot of Myc expression in HUVECs; type: cell-based, human
Protocol: as §2

HDLECs [7] = experiment: Three-dimensional bead sprouting assay; type: cell-based, human; conditions: control siRNA HDLEC-coated beads
Protocol: HDLECs were trypsinized and mixed with collagen-coated Cytodex® microcarrier beads (Sigma) in a ratio of 2500 beads to 1×10^6 cells in warm EGM-2 medium in a 15 ml falcon tube. The mixture was incubated at 37° C. for 4 hr., with shaking every 20 min. to ensure even coating of the beads. After 4 hr., the coated beads were transferred to a 6-well plate in 2 ml of EGM-2 medium per well and incubated at 37° C. overnight. The next day, coated beads were embedded into a fibrinogen gel. For each well of a 24-well plate, 300 μl of 3 mg/mL fibrinogen in PBS was used, along with 100 μg/ml of aprotinin (Sigma) and 1.5 unit/ml of thrombin (Sigma). Approximately 250 coated beads were embedded in each well. The plate was then incubated at 37° C. for one hr. to generate a clot. After the gel solidified, human lung fibroblasts in EGM-2 medium were seeded on top at a concentration of 20,000 cells/well. The medium was changed every other day (full EGM-2 medium with 200 ng/mL of FGF2), and the plates were imaged on day 6 using a spinning disk confocal microscope (Perkin Elmer). ImageJ was used to measure the sprout length for the data analysis.

orthotopic Panc02 tumors = experiment: Murine orthotopic pancreatic tumor model, peritumoral lymphatics (LYVE1); type: in vivo, mouse; conditions: oral, 30 mg/kg/day, compared to vehicle controls
Protocol: The murine pancreatic tumor cell line Panc02 was obtained from Prof. Wiedenmann (Charité University Hospital, Berlin). 1×10^6 tumor cells were injected subcapsularly in the head region of the pancreas of anaesthetized female C57Bl/6 mice (7-9 weeks old, Charles River, France) using a 30-gauge needle. At day 3 after tumor inoculation, tumor-bearing mice were treated daily with SSR (30 mg/kg/day) or vehicle (0.6% methylcellulose) via oral gavage. At day 9, primary tumors were removed, weighted, and tumor volumes (V) were calculated using the formula V=0.52×(a^2×b), where a represents the smallest tumour diameter and b represents the largest tumour diameter. The incidence of tumor invasion into adjacent organs, hemorrhagic ascites, and regional celiac and mesenteric lymph node metastases were recorded, and confirmed by immunohistochemistry on paraffin sections. Paraffin-embedded […] sections were prepared and used for immunohistochemistry using the following antibodies: anti-LYVE1 (Upstate-Cell Signaling Solutions, Bio-connect, Huissen, The Netherlands) and anti-VEGFR3 (eBiosciences). The lymph vessel area in the peritumoral area was analysed using the KS300 software (Zeiss).

zebrafish = experiment: Lymphatic development in zebrafish embryos; type: in vivo; conditions: 0.25 μM, 53 hpf Tg (fli1a:EGFP) embryos, vs DMSO

amount of Myc binding to the HK2 E-boxes [6]: increased by FGF2 treatment
Molecule: FGF2: Human FGF2 provided by Kaken Pharmaceutical and ordered from Peprotech
glucose uptake (HDLECs [1]): significantly increased glucose uptake
Myc protein expression (Myc expression in HDLECs): increased Myc protein expression
ATP production (HDLECs [2]): increased
steady-state levels of glycolytic metabolites and lactate (HDLECs [2]): all increased by FGF2 stimulation
glycolytic flux (HDLECs [3]): doubled
glycolytic enzyme (HK2) expression [4]: robust increase in HK2 expression, with minimal changes of other enzymes' expression
glycolysis in HUVECs (HUVECs): enhanced glycolysis
HK2 protein expression in HUVECs [5]: selectively induced HK2 expression albeit to a lesser extent than in LECs
lymphangiogenesis in the mouse cornea (mouse cornea): induced robust stimulation of lymphangiogenesis
Myc expression in HUVECs (Myc expression in HUVECs): increased Myc expression
sprouting response (HDLECs [7]): induced a strong sprouting response

Molecule: IGF1: insulin-like growth factor 1, purchased from Peprotech
glycolytic flux (HDLECs [3]): no effect

Molecule: COc1c(C)c(C(=O)c2ccc(N)c(C(=O)[O-])c2)n2ccccc12.[Na+] [SSR128129E]
lymphatic vasculature in the peri-tumoral area (LYVE1) (orthotopic Panc02 tumors): significant reduction of the lymphatic vasculature in the peri-tumoral area

Molecule: Cc1c[nH]c(/C=C2\C(=O)Nc3ccccc32)c1CCC(=O)O [SU5402]
lymphatic development in zebrafish (parachordal line length) (zebrafish): impairs lymphatic development in zebrafish

Molecule: IGF2: insulin-like growth factor 2, purchased from Peprotech
glycolytic flux (HDLECs [3]): reduced flux
